Measured values: article PMC4791268, “Inhibition of p300 lysine acetyltransferase activity by luteolin reduces tumor growth in head and neck squamous cell carcinoma (HNSCC) xenograft mouse model” (Oncotarget, 2015)

Target: T1, p300 (Homo sapiens, UniProt Q09472)
T1 construct: gene EP300; hexahistidine tagged full length p300
Assay: filter binding KAT assay with HeLa core histones; enzyme inhibition kinetics
Format: biochemical

T1 sequence (Q09472 2-2414): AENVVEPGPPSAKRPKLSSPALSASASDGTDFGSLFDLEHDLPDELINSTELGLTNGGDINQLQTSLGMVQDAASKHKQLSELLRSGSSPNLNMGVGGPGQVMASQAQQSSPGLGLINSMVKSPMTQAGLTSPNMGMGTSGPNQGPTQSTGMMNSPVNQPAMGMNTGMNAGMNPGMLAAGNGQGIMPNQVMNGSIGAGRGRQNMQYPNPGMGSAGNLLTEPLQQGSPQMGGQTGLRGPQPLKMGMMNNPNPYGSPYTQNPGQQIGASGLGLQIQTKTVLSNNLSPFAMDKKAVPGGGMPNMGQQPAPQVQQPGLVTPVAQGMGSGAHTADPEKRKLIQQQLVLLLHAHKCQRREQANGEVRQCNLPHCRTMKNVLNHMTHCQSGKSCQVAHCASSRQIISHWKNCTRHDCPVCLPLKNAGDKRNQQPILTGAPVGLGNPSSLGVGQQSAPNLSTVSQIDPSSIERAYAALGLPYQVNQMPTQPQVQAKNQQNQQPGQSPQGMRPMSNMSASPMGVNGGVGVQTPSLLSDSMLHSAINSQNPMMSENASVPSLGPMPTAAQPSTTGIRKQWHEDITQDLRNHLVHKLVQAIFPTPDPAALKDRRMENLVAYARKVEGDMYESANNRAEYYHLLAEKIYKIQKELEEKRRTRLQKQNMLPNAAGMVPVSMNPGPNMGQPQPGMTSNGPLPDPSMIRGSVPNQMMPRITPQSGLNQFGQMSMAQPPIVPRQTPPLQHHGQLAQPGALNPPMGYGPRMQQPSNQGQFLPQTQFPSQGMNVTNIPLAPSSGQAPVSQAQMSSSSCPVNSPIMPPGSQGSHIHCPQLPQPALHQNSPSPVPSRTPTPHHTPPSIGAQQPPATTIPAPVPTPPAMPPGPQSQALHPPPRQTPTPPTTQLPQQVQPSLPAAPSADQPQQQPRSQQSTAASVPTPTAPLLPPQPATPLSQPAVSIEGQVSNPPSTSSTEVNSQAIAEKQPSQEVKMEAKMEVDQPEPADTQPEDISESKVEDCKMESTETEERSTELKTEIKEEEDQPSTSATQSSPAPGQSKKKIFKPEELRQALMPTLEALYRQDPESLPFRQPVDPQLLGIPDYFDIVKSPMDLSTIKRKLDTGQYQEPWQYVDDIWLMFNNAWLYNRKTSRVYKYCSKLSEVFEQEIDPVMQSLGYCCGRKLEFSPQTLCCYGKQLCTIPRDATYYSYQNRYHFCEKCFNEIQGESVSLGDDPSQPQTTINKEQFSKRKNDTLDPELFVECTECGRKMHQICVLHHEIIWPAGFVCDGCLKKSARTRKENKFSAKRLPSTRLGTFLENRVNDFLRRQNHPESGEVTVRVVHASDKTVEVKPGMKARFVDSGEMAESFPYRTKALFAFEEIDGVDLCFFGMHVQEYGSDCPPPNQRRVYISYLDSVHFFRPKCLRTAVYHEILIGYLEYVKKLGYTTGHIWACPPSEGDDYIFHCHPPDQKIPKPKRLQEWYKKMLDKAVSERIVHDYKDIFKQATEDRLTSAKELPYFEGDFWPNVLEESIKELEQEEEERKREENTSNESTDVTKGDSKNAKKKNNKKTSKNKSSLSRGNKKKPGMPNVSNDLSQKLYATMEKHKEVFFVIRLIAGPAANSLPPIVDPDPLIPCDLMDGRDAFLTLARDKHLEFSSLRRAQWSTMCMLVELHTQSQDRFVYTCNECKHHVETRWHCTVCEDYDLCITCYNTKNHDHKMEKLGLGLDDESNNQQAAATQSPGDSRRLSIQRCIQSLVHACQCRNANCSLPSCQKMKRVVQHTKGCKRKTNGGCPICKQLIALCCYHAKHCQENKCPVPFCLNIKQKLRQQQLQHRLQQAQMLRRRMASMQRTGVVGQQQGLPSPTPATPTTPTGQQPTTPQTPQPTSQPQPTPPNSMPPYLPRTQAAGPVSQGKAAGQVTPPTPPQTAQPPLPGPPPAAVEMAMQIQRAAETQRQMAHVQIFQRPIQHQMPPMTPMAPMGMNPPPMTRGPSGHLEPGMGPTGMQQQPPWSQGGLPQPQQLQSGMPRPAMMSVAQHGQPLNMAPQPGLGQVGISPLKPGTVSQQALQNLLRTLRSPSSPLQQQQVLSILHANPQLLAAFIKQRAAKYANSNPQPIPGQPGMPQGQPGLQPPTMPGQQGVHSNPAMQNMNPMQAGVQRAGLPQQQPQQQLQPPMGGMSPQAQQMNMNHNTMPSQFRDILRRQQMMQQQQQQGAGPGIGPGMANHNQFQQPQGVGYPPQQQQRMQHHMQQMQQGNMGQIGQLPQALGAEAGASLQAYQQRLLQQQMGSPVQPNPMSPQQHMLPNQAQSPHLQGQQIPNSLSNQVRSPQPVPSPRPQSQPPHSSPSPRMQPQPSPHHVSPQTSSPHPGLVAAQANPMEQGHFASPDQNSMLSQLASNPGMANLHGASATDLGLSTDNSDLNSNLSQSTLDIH

IC50: 7 µM
Structure (SMILES): O=c1cc(-c2ccc(O)c(O)c2)oc2cc(O)cc(O)c12 [luteolin]
